Data: patent US20260250320A1, “LIPIDATED PEPTIDE INHIBITORS OF INTERLEUKIN-23 RECEPTOR” (Janssen Pharmaceutica NV, priority 2023, published 2026)
*1 amine or outer side, *2 acyl side, *3 side chain or, on linkers, in order; H or OH if unused. Where a SMILES comes first, the peptide text is derived from it. Bridges are numbered along the chain shown (N, C = ends). Side-chain parts run from the residue outwards. [ ]: non-standard residue; d: D form. The star is where a group is joined. FITC = O=C1OC2(c3ccc(O)cc3Oc3cc(O)ccc32)c2ccc(NC(=S)*)cc21; PEG12 = NCCOCCOCCOCCOCCOCCOCCOCCOCCOCCOCCOCCOCCC(=O)O; X24 = O=C(O)CCCCCCCCCCCCCCCCCN[C@@H](CCC(=O)*)C(=O)O; CH2CH2OCH2CH2OCH2CH2NMe3+ = C[N+](C)(C)CCOCCOCC*; Trp(7-Me) = Cc1cccc2c(C[C@H](N)C(=O)O)c[nH]c12; Hexanoyl(6-NMe3+) = C[N+](C)(C)CCCCCC(=O)*; C18 diacid = O=C(O)CCCCCCCCCCCCCCCCC(=O)*; γGlu = O=C(O)[C@H](CCC(=O)[*:2])N[*:1]; 2Nal = N[C@@H](Cc1ccc2ccccc2c1)C(=O)O; AEF = NCCOc1ccc(C[C@H](N)C(=O)O)cc1; 3Pal = N[C@@H](Cc1cccnc1)C(=O)O; Lys(Me) = CNCCCC[C@H](N)C(=O)O; PEG4 = NCCOCCOCCOCCOCCC(=O)O; Pen = CC(C)(S)[C@H](N)C(=O)O; Thp = NC1(C(=O)O)CCOCC1; AEEA = NCCOCCOCC(=O)O; Sar = CNCC(=O)O

Assays:
[1] = biological target: T1, IL-23R (Homo sapiens, UniProt Q5VWK5); assay: IL23R Reporter Assay; assay type: cell-based; conditions: HEK293 cells containing IL-23R, IL-12Rβ1 and STAT-inducible firefly luciferase reporter; 10 ng/mL IL-23 (EC90); 5 h
T1 construct: HEK293 cells containing IL-23R, IL-12Rβ1 and a firefly luciferase reporter gene driven by a STAT-inducible promoter (Promega); host or cells: HEK293
T1 sequence (Q5VWK5 24-629): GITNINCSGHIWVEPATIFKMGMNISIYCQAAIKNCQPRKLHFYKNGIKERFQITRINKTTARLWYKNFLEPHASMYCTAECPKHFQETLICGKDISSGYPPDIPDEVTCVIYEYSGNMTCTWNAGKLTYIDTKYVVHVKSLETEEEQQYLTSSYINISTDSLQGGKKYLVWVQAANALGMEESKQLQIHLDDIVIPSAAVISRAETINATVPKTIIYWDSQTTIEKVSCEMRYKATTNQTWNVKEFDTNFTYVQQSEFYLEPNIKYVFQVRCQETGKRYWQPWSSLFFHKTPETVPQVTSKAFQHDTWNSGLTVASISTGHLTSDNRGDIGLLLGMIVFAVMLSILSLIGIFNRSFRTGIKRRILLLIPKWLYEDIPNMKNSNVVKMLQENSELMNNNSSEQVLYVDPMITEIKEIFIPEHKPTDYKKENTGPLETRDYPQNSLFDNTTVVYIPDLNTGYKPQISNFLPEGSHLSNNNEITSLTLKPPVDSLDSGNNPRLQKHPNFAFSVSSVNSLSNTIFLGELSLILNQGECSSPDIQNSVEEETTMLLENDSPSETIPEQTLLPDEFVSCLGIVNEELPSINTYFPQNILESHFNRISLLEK
Method in brief: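 HEK293 cells carrying IL-23R, IL-12Rβ1 and a STAT-driven firefly luciferase reporter (4000 cells/well) received compound, then 10 ng/mL IL-23 solution (EC90), and were incubated for 5 h at 37° C. BioGlo luminescence was normalised to IL-23 alone (0%) and 30 μM control inhibitor (100%). IC50 came from a 4-parameter Hill fit.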

[2] = tested on: IL-23-stimulated phosphorylated STAT3 in peripheral blood mononuclear cells (PBMCs); assay: PBMC pSTAT3 Assay; assay type: cell-based; conditions: PBMCs from healthy donors; 30 min preincubation with peptide; IL-23 5 ng/mL for 30 min; phospho-STAT3 by MSD
Method in brief: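 Healthy-donor PBMCs expanded 4 days on anti-CD3 with 100 ng/mL IL-1β, starved ~4 h in RPMI-0.1% BSA, preincubated 30 min with peptide, then stimulated 30 min at 37 °C with 5 ng/mL IL-23. Lysate pSTAT3 measured by MSD phospho-STAT panel; IC50 derived.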

| IC50 [1] [nM] | SMILES | IC50 [2] [nM] |
| --- | --- | --- |
| < 50 | CC(=O)N(C)CCCC[C@@H]1NC(=O)[C@H](Cc2c[nH]c3c(C)cccc23)NC(=O)[C@H]([C@@H](C)O)NC(=O)[C@H](CC(=O)N(C)C)NC(=O)[C@@H](NC(=O)CCOCCOCCOCCOCCOCCOCCOCCOCCOCCOCCOCCOCCNC(=O)CC[C@H](NC(=O)CCCCCCCCCCCCCCCCC(=O)O)C(=O)O)C(C)(C)SSC(C)(C)[C@@H](C(=O)N[C@@H](Cc2ccc(OCCOCCOCC[N+](C)(C)C)cc2)C(=O)N[C@@H](Cc2ccc3ccccc3c2)C(=O)NC2(C(=O)N[C@@H](CCCCN(C)C(C)=O)C(=O)N[C@@H](CC(N)=O)C(=O)N[C@@H](Cc3cccnc3)C(=O)N(C)CC(=O)N(C)C)CCOCC2)NC1=O [compound 108, HOC18gEPEG12CO-Pen(3)-N(N(Me)2)-T-7MeW-K(NMeAc)-Pen(3)-APEG3F-2Nal-THP-K(NMeAc)-N-3Pya-Sar-CON(Me)2] ({C18 diacid-γGlu-PEG12}-[Pen]D(NMe2)T[Trp(7-Me)][Lys(Me)](Ac)[Pen]Y(CH2CH2OCH2CH2OCH2CH2NMe3+)[2Nal][Thp][Lys(Me)](Ac)N[3Pal][Sar]-NMe2; disulfide 1-6) | < 0.5 |
| < 50 | CC(=O)N(C)CCCC[C@H](CC(=O)C1(NC(=O)[C@H](Cc2ccc3ccccc3c2)NC(=O)[C@H](Cc2ccc(OCCNC(=O)C[N+](C)(C)CCNC(=O)CCOCCOCCOCCOCCOCCOCCOCCOCCOCCOCCOCCOCCNC(=O)CC[C@H](NC(=O)CCCCCCCCCCCCCCCCCCC(=O)O)C(=O)O)cc2)NC(=O)[C@H]2NC(=O)[C@H](CCCCN(C)C(C)=O)NC(=O)[C@H](Cc3c[nH]c4c(C)cccc34)NC(=O)[C@H]([C@@H](C)O)NC(=O)[C@H](CC(=O)N(C)C)NC(=O)[C@@H](NC(=O)CCOCCOCC[N+](C)(C)C)C(C)(C)SSC2(C)C)CCCCC1)C(=O)C[C@@H](CC(N)=O)C(=O)C[C@@H](Cc1cccnc1)C(=O)N(C)CC(=O)N(C)C [compound 139, cPEG3aCO-Pen(3)-N(N(Me)2)-T-7MeW-K(NMeAc)-Pen(3)-AEF(SP6PEG12gEC20OH)-2Nal-THP-K(NMeAc)-N-3Pya-Sar-CON(Me)2] | < 0.5 |
| 50 to 500 | CC(=O)NCCCC[C@@H]1NC(=O)[C@H](Cc2c[nH]c3c(C)cccc23)NC(=O)[C@H]([C@@H](C)O)NC(=O)[C@H](CC(N)=O)NC(=O)[C@@H](NC(=O)[C@@H](CCCNC(=N)N)NC(=O)CCCCC[N+](C)(C)C)C(C)(C)SSC(C)(C)[C@@H](C(=O)N[C@@H](Cc2ccc(OCCN)cc2)C(=O)N[C@@H](Cc2ccc3ccccc3c2)C(=O)NC2(C(=O)N[C@@H](CCC(=O)O)C(=O)N[C@@H](CC(N)=O)C(=O)N[C@@H](Cc3cccnc3)C(=O)N(C)CC(=O)N[C@@H](CCCCNC(=O)COCCOCCNC(=O)COCCOCCNC(=O)CC[C@H](NC(=O)CCCCCCCCCCCCCCCCC(=O)O)C(=O)O)C(N)=O)CCOCC2)NC1=O [compound 81, 5cpaCO-r-Pen(3)-N-T-7MeW-K(Ac)-Pen(3)-AEF-2Nal-THP-E-N-3Pya-Sar-K(PEG2PEG2gEC18OH)-CONH2] ({Hexanoyl(6-NMe3+)}-[dR][Pen]NT[Trp(7-Me)]K(Ac)[Pen][AEF][2Nal][Thp]EN[3Pal][Sar]K([AEEA-AEEA-γGlu-C18 diacid])-NH2; disulfide 2-7) | < 0.5 |
| < 50 | CC(=O)NCCCC[C@@H]1NC(=O)[C@H](Cc2c[nH]c3c(C)cccc23)NC(=O)[C@H]([C@@H](C)O)NC(=O)[C@H](CC(N)=O)NC(=O)[C@@H](NC(=O)[C@@H](CCCNC(=N)N)NC(=O)COCCOCCNC(=O)COCCOCCNC(=O)CC[C@H](NC(=O)CCCCCCCCCCCCCCCCC(=O)O)C(=O)O)C(C)(C)SSC(C)(C)[C@@H](C(=O)N[C@@H](Cc2ccc(OCCN)cc2)C(=O)N[C@@H](Cc2ccc3ccccc3c2)C(=O)NC2(C(=O)N[C@@H](CCC(=O)O)C(=O)N[C@@H](CC(N)=O)C(=O)N[C@@H](Cc3cccnc3)C(=O)N(C)CC(N)=O)CCOCC2)NC1=O [compound 60, HOC18gEPEG2PEG2CO-r-Pen(3)-N-T-7MeW-K(Ac)-Pen(3)-AEF-2Nal-THP-E-N-3Pya-Sar-CONH2] ({C18 diacid-γGlu-AEEA-AEEA}-[dR][Pen]NT[Trp(7-Me)]K(Ac)[Pen][AEF][2Nal][Thp]EN[3Pal][Sar]-NH2; disulfide 2-7) | < 0.5 |
| 50 to 500 | Cc1cccc2c(C[C@@H]3NC(=O)[C@H]([C@@H](C)O)NC(=O)[C@H](CC(N)=O)NC(=O)[C@@H](NC(=O)[C@@H](CCCNC(=N)N)NC(=O)CCCCC[N+](C)(C)C)C(C)(C)SSC(C)(C)[C@@H](C(=O)N[C@@H](Cc4ccc(OCCN)cc4)C(=O)N[C@@H](Cc4ccc5ccccc5c4)C(=O)NC4(C(=O)N[C@@H](CCC(=O)O)C(=O)N[C@@H](CC(N)=O)C(=O)N[C@@H](Cc5cccnc5)C(=O)N(C)CC(N)=O)CCOCC4)NC(=O)[C@H](CCCCNC(=O)COCCOCCNC(=O)COCCOCCNC(=O)CC[C@H](NCCCCCCCCCCCCCCCCCC(=O)O)C(=O)O)NC3=O)c[nH]c12 [compound 71, 5cpaCO-r-Pen(3)-N-T-7MeW-K(PEG2PEG2C18OH)-Pen(3)-AEF-2Nal-THP-E-N-3Pya-Sar-CONH2] ({Hexanoyl(6-NMe3+)}-[dR][Pen]NT[Trp(7-Me)]K([AEEA-AEEA-X24])[Pen][AEF][2Nal][Thp]EN[3Pal][Sar]-NH2; disulfide 2-7) | < 0.5 |
| 50 to 500 | CC(=O)NCCCC[C@@H]1NC(=O)[C@H](Cc2c[nH]c3c(C)cccc23)NC(=O)[C@H]([C@@H](C)O)NC(=O)[C@H](CC(N)=O)NC(=O)[C@@H](NC(=O)[C@@H](CCCNC(=N)N)NC(=O)CCOCCOCCOCCOCCNC(=S)Nc2ccc3c(c2)C(=O)OC32c3ccc(O)cc3Oc3cc(O)ccc32)C(C)(C)SSC(C)(C)[C@@H](C(=O)N[C@@H](Cc2ccc(OCCN)cc2)C(=O)N[C@@H](Cc2ccc3ccccc3c2)C(=O)NC2(C(=O)N[C@@H](CCC(=O)O)C(=O)N[C@@H](CC(N)=O)C(=O)N[C@@H](Cc3cccnc3)C(=O)N(C)CC(=O)N[C@@H](CCCCNC(=O)COCCOCCNC(=O)COCCOCCNC(=O)CC[C@H](NC(=O)CCCCCCCCCCCCCCCCC(=O)O)C(=O)O)C(N)=O)CCOCC2)NC1=O [compound 25, FITCPEG4CO-r-Pen(3)-N-T-7MeW-K(Ac)-Pen(3)-AEF-2Nal-THP-E-N-3Pya-Sar-K(PEG2PEG2gEC18OH)-CONH2] ({FITC-PEG4}-[dR][Pen]NT[Trp(7-Me)]K(Ac)[Pen][AEF][2Nal][Thp]EN[3Pal][Sar]K([AEEA-AEEA-γGlu-C18 diacid])-NH2; disulfide 2-7) | 0.5 to 5 |
| 50 to 500 | CC(=O)NCCCC[C@@H]1NC(=O)[C@H](Cc2c[nH]c3c(C)cccc23)NC(=O)[C@H]([C@@H](C)O)NC(=O)[C@H](CCCCNC(=O)COCCOCCNC(=O)COCCOCCNC(=O)CC[C@H](NC(=O)CCCCCCCCCCCCCCCCC(=O)O)C(=O)O)NC(=O)[C@@H](NC(=O)[C@@H](CCCNC(=N)N)NC(=O)CCCCC[N+](C)(C)C)C(C)(C)SSC(C)(C)[C@@H](C(=O)N[C@@H](Cc2ccc(OCCN)cc2)C(=O)N[C@@H](Cc2ccc3ccccc3c2)C(=O)NC2(C(=O)N[C@@H](CCC(=O)O)C(=O)N[C@@H](CC(N)=O)C(=O)N[C@@H](Cc3cccnc3)C(=O)N(C)CC(N)=O)CCOCC2)NC1=O [compound 73, 5cpaCO-r-Pen(3)-K(PEG2PEG2gEC18OH)-T-7MeW-K(Ac)-Pen(3)-AEF-2Nal-THP-E-N-3Pya-Sar-CONH2] ({Hexanoyl(6-NMe3+)}-[dR][Pen]K([AEEA-AEEA-γGlu-C18 diacid])T[Trp(7-Me)]K(Ac)[Pen][AEF][2Nal][Thp]EN[3Pal][Sar]-NH2; disulfide 2-7) | < 0.5 |
